Data set [1] is described as follows: Stability in human liver homogenate (metabolic stability in vitro). In kind it is in vitro ADME. As to conditions: read-out: t ½. The text has this:
DÖRJE, F., WESS, J., LAMBRECHT, G., TACKE, R., […], E. and BRANN, M. R. (1991) Antagonist binding profiles of five cloned human muscarinic receptor subtypes. J. Pharmacol. Exp. Ther., 256: 727-733. • […], M. H. (1990) Rat hippocampal muscarinic autoreceptors are similar to the M2 (cardiac) subtype: comparison with hippocampal M1, atrial M2 and ileal M3 receptors. Brit. J. Pharmacol., 99: 753-761. • PERALTA, E. G., ASHKENAZI, A., WINSLOW, J. W., SMITH, D. H., […], J. and CAPON, D. J. (1987) Distinct primary structures, ligand-binding properties and tissue-specific expression of four human muscarinic acetylcholine receptors. EMBO. J., 6: 3923-3929. Determination of Metabolic Stability (In Vitro)
Method used according to procedures described by DI, L. et al., Journal of Biomolecular Screening, Vol. 8, No. 4, 453-462 (2003).

The target in data set [2] is T1, Muscarine M1 (GPCR-A-MA-ACH M1) (Homo sapiens, UniProt P11229).
T1 construct: expressed in transfected cells; host or cells: CHO cells
T1 sequence (P11229 1-460): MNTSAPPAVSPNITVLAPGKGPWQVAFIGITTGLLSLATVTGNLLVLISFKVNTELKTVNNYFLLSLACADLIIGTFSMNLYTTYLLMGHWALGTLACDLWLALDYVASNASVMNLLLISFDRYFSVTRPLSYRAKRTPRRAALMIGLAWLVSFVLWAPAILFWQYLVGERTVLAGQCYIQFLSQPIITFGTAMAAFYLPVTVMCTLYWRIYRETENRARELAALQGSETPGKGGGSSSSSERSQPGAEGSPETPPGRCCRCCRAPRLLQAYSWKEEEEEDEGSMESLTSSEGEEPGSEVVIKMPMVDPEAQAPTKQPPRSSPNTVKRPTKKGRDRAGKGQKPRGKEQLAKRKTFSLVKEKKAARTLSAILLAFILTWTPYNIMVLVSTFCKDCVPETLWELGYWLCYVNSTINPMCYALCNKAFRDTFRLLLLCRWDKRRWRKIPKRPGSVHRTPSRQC
Description: Muscarine M1 cell-based functional assay (CHO cells, Ca2+ - FLIPR Fluorimetry). Particulars: human M1, CHO cells; agonist mode, reference agonist acetylcholine; read-out: Cell funct. Musc. M1 Agonism pEC50 (converted).

Data set [3] addresses T1, Muscarine M1 (GPCR-A-MA-ACH M1). Kind of data set: Muscarine M1 receptor binding, 3H-Pirenzepine. Particulars: human M1, CHO cells, ligand 2 nM, 60 min/22° C., read-out: RB Musc. M1 3H-Pirenzepine pKi (converted). An outline of the steps: (§1)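 Human M1 ([3H]-pirenzepine), M3, and M4 ([3H]-4DAMP or [3H]-oxotremorine) receptor preparations incubated with radioligand and compound, first at 10 μM, then at 10-fold lower concentrations if inhibition exceeded 40%. Bound ligand separated by glass-fibre filtration and counted by scintillation. IC50 from Hill fit, converted to Ki via Cheng-Prusoff, reported as pKi.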

The target in data set [4] is T2, Muscarine M4 (GPCR-A-MA-ACH M4) (Homo sapiens, UniProt P08173).
T2 construct: expressed in transfected cells; host or cells: CHO cells
T2 sequence (P08173 1-479): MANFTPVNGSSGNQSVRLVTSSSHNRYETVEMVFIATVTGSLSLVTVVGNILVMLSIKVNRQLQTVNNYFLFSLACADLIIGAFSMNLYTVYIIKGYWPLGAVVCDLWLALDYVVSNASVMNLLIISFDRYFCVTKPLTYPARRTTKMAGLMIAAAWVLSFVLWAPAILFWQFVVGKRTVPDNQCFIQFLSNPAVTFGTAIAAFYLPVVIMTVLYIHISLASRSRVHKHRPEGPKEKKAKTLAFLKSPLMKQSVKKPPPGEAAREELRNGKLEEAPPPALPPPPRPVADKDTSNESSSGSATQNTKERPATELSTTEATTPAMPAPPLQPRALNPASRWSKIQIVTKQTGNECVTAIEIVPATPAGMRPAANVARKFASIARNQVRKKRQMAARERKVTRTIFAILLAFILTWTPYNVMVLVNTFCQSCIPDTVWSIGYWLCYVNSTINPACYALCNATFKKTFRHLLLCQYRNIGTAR
Kind of data set: Muscarine M4 receptor binding, 3H-Oxotremorine. As to conditions: human M4, CHO cells; receptor binding, ligand 6 nM, 30 min/25° C.; read-out: RB Musc. M4 3H-Oxotremorine pKi (converted). Summed up:
as §1

Data set [5] concerns the target T2, Muscarine M4 (GPCR-A-MA-ACH M4). Kind of data set: Muscarine M4 receptor binding, 3H-4DAMP. Particulars: human M4, CHO cells, ligand 0.2 nM, 60 min/22° C., read-out: RB Musc. M4 3H-DAMP pKi (converted). An outline of the steps: as §1
For data set [6] the target is unchanged. Description: Muscarine M4 cell-based functional assay (CHO cells, Ca2+ - Aequorin luminescence). As to conditions: human M4, CHO cells; agonist mode, reference agonist oxotremorine; read-out: Cell funct. Musc. M4 Agonism pEC50 (converted). Summed up:
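CHO cells expressing human M4 were exposed to compound, with Ca2+ response read by aequorin luminescence. Compounds were first tested at 1 μM, then at 10-fold lower concentrations if active; stimulation or inhibition was relative to the reference agonist. EC50/IC50 came from Hill-equation fits.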

SMILES strings stand for the structures.

With `CN1CCC=C(c2n[nH]cc2SCCC=C(F)F)C1` [Compound 22J, 3-[4-(4,4-Difluoro-but-3enylsulfanyl)-1H-pyrazol-3-yl]-1,2,5,6-tetrahydro-1-methylpyridine], in data set [1], the half-life was determined as 2.15 h. Further, the EC50 in data set [2] was 39.8 nM; in data set [6], 251 nM. In addition, the Ki in data set [3] is 631 nM; in data set [4] it was 63.1 nM; in data set [5], 251 nM.

`C=CCCCSc1c[nH]nc1C1=CCCN(C)C1` [Compound 22L]: the half-life in data set [1] was 0.933 h. The EC50 in data set [2] was 10 nM; in data set [6], 63.1 nM. Also, the Ki in data set [3] is 794 nM; in data set [4], 63.1 nM; in data set [5], 100 nM.

In the case of `CCOCCSc1c[nH]nc1C1=CCCN(C)C1` [Compound 22O, 3-[4-(2-Ethoxy-ethylsulfanyl)-1H-pyrazol-3-yl]-1,2,5,6-tetrahydro-1-methylpyridine], the half-life in data set [1] amounted to 4.08 h. Besides, the EC50 in data set [2] is 31.6 nM; in data set [6], 631 nM. Further, the Ki in data set [3] is 7940 nM; in data set [4] it was 398 nM; in data set [5], 794 nM.

Consider `C=CCCCOc1c[nH]nc1C1=CCCN(C)C1` [Compound 33F, 3-(4-Pent-4-enyloxy-1H-pyrazol-3-yl)-1,2,5,6-tetrahydro-1-methylpyridine], for which, in data set [1], the half-life stood at 3.83 h. Moreover, the EC50 in data set [2] is 39.8 nM; in data set [6], 794 nM. Also, the Ki in data set [3] was 3980 nM; in data set [4], 316 nM; in data set [5], 501 nM.

As for `CCCCCOc1c[nH]nc1C1=CCCN(C)C1` [Compound 33G, 3-(4-Pentyloxy-1H-pyrazol-3-yl)-1,2,5,6-tetrahydro-1-methylpyridine], the half-life in data set [1] came out at 0.933 h. The results for the EC50 in data set [2] and in data set [6] were 25.1 nM and 631 nM, respectively. The figures for the Ki in data set [3], in data set [4] and in data set [5] were 1580 nM, 126 nM and 200 nM, respectively.

These data come from patent publication US8735388B2, “Heterocyclic compounds with affinity to muscarinic receptors” (Abbvie B. V. A., priority 2007, dated 2014).
